{"source": "patent US11970512B2", "about": "“Amphotericin B derivatives with improved therapeutic index” (The Board of Trustees of the University of Illinois, priority 2013, dated 2024)", "key": {"[1]": {"test_system": "Saccharomyces cerevisiae", "experiment": "Broth microdilution assay (MIC) against Saccharomyces cerevisiae", "type": "cell-based", "details": "read-out: MIC (μM) S.cerevisiae", "protocol": "(§1) With efficient access to this novel AmB chemotype, ureas 2-4 were compared to AmB and a range of previously reported AmB derivatives in an in vitro antifungal and human cell toxicity screen. Yeast toxicity was measured with broth microdilution assays (MIC) against Saccharomyces cerevisiae. Human cell toxicity was studied by determining the amount of compound required to cause 90% hemolysis of human erythrocytes (EH90). […] Methyl esterification (AmBME) retains antifungal activity at 0.25 μM against S. cerevisiae, while decreasing hemolysis concentration to one third that seen with AmB. […] Hemolysis activity remained similar to AmBME and C41MeAmB. Bis-amino alkylated amide derivative AmBNR2 was previously shown to moderately improve the therapeutic index.^[19]\n(§2) Each derivative proposed herein is tested for biological activity against both yeast and human cells to determine its therapeutic index. A broth microdilution experiment determines the MIC (minimum inhibitory concentration) of each derivative against S. cerevisiae and the clinically relevant C. albicans, thereby establishing the antifungal activity of each novel derivative. To test for toxicity against human cells, each compound is exposed to a hemolysis assay against red blood cells which determines the concentration required to cause 90% lysis of human red blood cells (EH90). Additionally, each compound is exposed to human primary renal tubule cells to determine the toxicity of each compound against kidney cells. These assays when compared against the known values of AmB against the same cell lines determine the improvement in therapeutic index of each compound."}, "[2]": {"test_system": "Candida albicans", "experiment": "Broth microdilution assay (MIC) against C. albicans", "type": "cell-based", "details": "read-out: MIC (μM) against C. albicans", "protocol": "Urea derivatives 2-4 maintain potent antifungal activity ranging from 0.125 μM to 3 μM against S. cerevisiae. […] AmBCU required 324 μM to cause 90% hemolysis in red blood cells, more than 30× required by AmB. Encouraged by this initial therapeutic index screen the urea series was further tested against the clinically relevant fungal cell line Candida albicans. C. albicans is the most common human fungal infection. AmB inhibits yeast grown of C. albicans at 0.25 μM. Similar to the trend seen with S. cerevisiae, the potency of urea derivatives […] increased with increasing amount of cationic character. AmBAU, AmBMU, and AmBCU require 0.25, 0.5, and 1 μM respectively (Table 2).\nas §2"}, "[3]": {"experiment": "Acute toxicity, single intravenous administration to healthy mice, lethality", "type": "in vivo", "protocol": "FIG. 40 is a graph depicting lethality in healthy mice of single intravenous administration in the doses indicated of AmB, AmBMU, or AmBAU.\nIn a separate set of experiments, acute toxicity was evaluated by single intravenous administration of 1, 2, 4, 8, 16, 32, or 64 mg/kg AmB or its derivatives to healthy mice, followed by monitoring for lethality. […] AmBAU was drastically less toxic with >50% lethality not being reached until the 64 mg/kg dosage group."}, "[4]": {"test_system": "human erythrocytes", "type": "cell-based", "details": "for EH90 as multiple of that observed with AmB: human", "protocol": "as §1, §2"}, "[5]": {"test_system": "C. albicans", "experiment": "Mouse model of disseminated candidiasis, kidney fungal burden", "type": "in vivo", "details": "neutropenic mice; for reduction of kidney fungal burden relative to AmB: single intraperitoneal 16 mg/kg dose, 24 hours post inoculation; for reducing the fungal burden present in the kidneys, compared with AmB (in words): single intraperitoneal dose, all three tested doses (1, 4, and 16 mg/kg)", "protocol": "FIG. 39 is a group of three graphs depicting kidney fungal load (colony forming units, cfu) in neutropenic mice inoculated intravenously with C. albicans and then treated two hours later with a single intraperitoneal dose of vehicle control, AmB, AmBMU, or AmBAU. FIG. 39A, 1 mg/kg AmB, AmBMU, or AmBAU. FIG. 39B, 4 mg/kg AmB, AmBMU, or AmBAU. FIG. 39C, 16 mg/kg AmB, AmBMU, or AmBAU.\nThe antifungal efficacies of AmBMU and AmBAU were tested in a mouse model of disseminated candidiasis. In this experiment neutropenic mice were infected with C. albicans via the tail vein, and then 2 hours post infection the mice were treated with a single intraperitoneal injection of AmB, AmBMU, or AmBAU. Then 2, 6, 12, and 24 hours post infection the mice were sacrificed, and the fungal burden present in their kidneys was quantified. […] The differences were most pronounced at the 16 mg/kg dose at 24 hours post inoculation. Relative to AmB, AmBMU reduced the fungal burden by 1.2 log units (p≤0.001), and AmBAU reduced the fungal burden by nearly 3 log units (p≤0.0001)."}, "[6]": {"test_system": "yeast", "details": "in vitro studies; cited from earlier work"}, "[7]": {"details": "Saccharomyces cerevisiae, broth microdilution"}, "[8]": {"details": "Candida albicans, broth microdilution"}}, "note": "Read-outs that look alike come from different tables or passages of the source."}
{"smiles": "C[C@@H]1[C@H](O)[C@@H](C)/C=C/C=C/C=C/C=C/C=C/C=C/C=C/[C@H](O[C@@H]2O[C@H](C)[C@@H](O)[C@H](N)[C@@H]2O)C[C@@H]2O[C@](O)(C[C@@H](O)C[C@@H](O)[C@H](O)CC[C@@H](O)C[C@@H](O)CC(=O)O[C@H]1C)C[C@H](O)[C@H]2C(=O)O", "note": "[AmB, amphotericin B]", "values": [{"measurement": "MIC", "setting": "[1]; broth microdilution", "result": 0.5, "unit": "µM"}, {"measurement": "MIC", "setting": "[2]; broth microdilution", "result": 0.25, "unit": "µM"}, {"measurement": "lethality", "setting": "[3]; single intravenous 4 mg/kg", "result": "All mice in the 4 mg/kg AmB dosage group died within seconds"}]}
{"smiles": "CC1OC(O[C@H]2/C=C/C=C/C=C/C=C/C=C/C=C/C=C/[C@H](C)[C@@H](O)[C@@H](C)[C@H](C)OC(=O)C[C@H](O)C[C@H](O)CC[C@@H](O)[C@H](O)C[C@H](O)C[C@]3(O)C[C@H](O)[C@@H](NC(=O)NCCN)C(C2)O3)C(O)C(N)C1O", "note": "(stereo partly drawn) [AmBAU]", "values": [{"measurement": "cell-killing activity / toxicity towards human red blood cells (in words)", "setting": "[4]", "result": "drastically decreased toxicity towards red blood cells"}, {"measurement": "EH90 (μM) red blood cells", "setting": "[4]; amount of compound required to cause 90% hemolysis of human erythrocytes", "result": ">500", "unit": "µM"}, {"measurement": "MIC", "setting": "[1]; Saccharomyces cerevisiae", "result": 0.125, "unit": "µM"}, {"measurement": "MIC", "setting": "[2]; Candida albicans", "result": 0.25, "unit": "µM"}, {"measurement": "reduction of kidney fungal burden relative to AmB", "setting": "[5]", "result": "~3", "unit": "log units"}, {"measurement": "reducing the fungal burden present in the kidneys, compared with AmB (in words)", "setting": "[5]", "result": "substantially more effective than AmB"}, {"measurement": "dosage group at which >50% lethality was reached", "setting": "[3]; single intravenous administration", "result": 64, "unit": "mg/kg"}]}
{"smiles": "CC1OC(O[C@H]2/C=C/C=C/C=C/C=C/C=C/C=C/C=C/[C@H](C)[C@@H](O)[C@@H](C)[C@H](C)OC(=O)C[C@H](O)C[C@H](O)CC[C@@H](O)[C@H](O)C[C@H](O)C[C@]3(O)C[C@H](O)[C@@H](NC(=O)NCCC(=O)O)C(C2)O3)C(O)C(N)C1O", "note": "(stereo partly drawn) [AmBCU]", "values": [{"measurement": "cell-killing activity / toxicity towards human red blood cells (in words)", "setting": "[4]", "result": "drastically decreased toxicity towards red blood cells"}, {"measurement": "EH90 as multiple of that observed with AmB", "setting": "[4]", "result": "more than 30 ×"}, {"measurement": "MIC", "setting": "[1]; [7]", "result": 3, "unit": "µM"}, {"measurement": "MIC", "setting": "[2]; [8]", "result": 1, "unit": "µM"}]}
{"smiles": "CNC(=O)[C@H]1[C@@H]2C[C@@H](O[C@@H]3O[C@H](C)[C@@H](O)[C@H](N)[C@@H]3O)/C=C/C=C/C=C/C=C/C=C/C=C/C=C/[C@H](C)[C@@H](O)[C@@H](C)[C@H](C)OC(=O)C[C@H](O)C[C@H](O)CC[C@@H](O)[C@H](O)C[C@H](O)C[C@](O)(C[C@@H]1O)O2", "note": "[AmBMA, reference compound]", "values": [{"measurement": "EH90 (μM) red blood cells", "setting": "[4]", "result": "15.32 ± 3.39", "unit": "µM"}, {"measurement": "MIC", "setting": "[1]; broth microdilution", "result": 0.25, "unit": "µM"}]}
{"smiles": "COC(=O)[C@H]1[C@@H]2C[C@@H](O[C@@H]3O[C@H](C)[C@@H](O)[C@H](N)[C@@H]3O)/C=C/C=C/C=C/C=C/C=C/C=C/C=C/[C@H](C)[C@@H](O)[C@@H](C)[C@H](C)OC(=O)C[C@H](O)C[C@H](O)CC[C@@H](O)[C@H](O)C[C@H](O)C[C@](O)(C[C@@H]1O)O2", "note": "[AmBME, reference compound]", "values": [{"measurement": "EH90 (μM) red blood cells", "setting": "[4]", "result": "30.67 ± 5.38", "unit": "µM"}, {"measurement": "hemolysis concentration relative to AmB", "setting": "[4]", "result": "one third"}, {"measurement": "MIC", "setting": "[1]; broth microdilution", "result": 0.25, "unit": "µM"}]}
{"smiles": "CNC(=O)N[C@H]1C2C[C@@H](OC3OC(C)C(O)C(N)C3O)/C=C/C=C/C=C/C=C/C=C/C=C/C=C/[C@H](C)[C@@H](O)[C@@H](C)[C@H](C)OC(=O)C[C@H](O)C[C@H](O)CC[C@@H](O)[C@H](O)C[C@H](O)C[C@](O)(C[C@@H]1O)O2", "note": "(stereo partly drawn) [AmBMU]", "values": [{"measurement": "cell-killing activity / toxicity towards human red blood cells (in words)", "setting": "[4]", "result": "drastically decreased toxicity towards red blood cells"}, {"measurement": "EH90 as multiple of that observed with AmB", "setting": "[4]", "result": "greater than 45 ×"}, {"measurement": "MIC", "setting": "[1]; [7]", "result": 0.25, "unit": "µM"}, {"measurement": "MIC", "setting": "[2]; [8]", "result": 0.5, "unit": "µM"}, {"measurement": "reduction of kidney fungal burden relative to AmB", "setting": "[5]", "result": 1.2, "unit": "log units"}, {"measurement": "reducing the fungal burden present in the kidneys, compared with AmB (in words)", "setting": "[5]", "result": "substantially more effective than AmB"}, {"measurement": "lethality", "setting": "[3]; single intravenous 64 mg/kg", "result": "survived with no observable toxicity"}]}
{"smiles": "CC1C=CC=CC=CC=CC=CC=CC=CC(OC2CC(N)C(O)C(C)O2)CC2OC(O)(CC(O)CC(O)C(O)CCC(O)CC(O)CC(=O)OC(C)C(C)C1O)CC(O)C2C(=O)O", "note": "(stereo not drawn) [C2′deOAmB]", "values": [{"measurement": "toxicity to yeast", "setting": "[6]", "result": "toxic to yeast"}]}
